Results reported in patent US20230312524A1, “ALPHA1A-ADRENERGIC RECEPTOR AGONISTS AND METHODS OF USE” (CuraSen Therapeutics, Inc., priority 2020, published 2023).
Where a name gives a salt, the structure may show the parent alone. Read-outs that look alike come from different tables or passages of the source.

Tests used:
[1] = target: T1, α1A-ARS (Homo sapiens, UniProt P35348); assay: Calcium flux assay (Calcium 6 dye) in cells expressing an α1-AR; type: cell-based; details: for Emax: read-out: Average Emax
T1 sequence (P35348 1-466): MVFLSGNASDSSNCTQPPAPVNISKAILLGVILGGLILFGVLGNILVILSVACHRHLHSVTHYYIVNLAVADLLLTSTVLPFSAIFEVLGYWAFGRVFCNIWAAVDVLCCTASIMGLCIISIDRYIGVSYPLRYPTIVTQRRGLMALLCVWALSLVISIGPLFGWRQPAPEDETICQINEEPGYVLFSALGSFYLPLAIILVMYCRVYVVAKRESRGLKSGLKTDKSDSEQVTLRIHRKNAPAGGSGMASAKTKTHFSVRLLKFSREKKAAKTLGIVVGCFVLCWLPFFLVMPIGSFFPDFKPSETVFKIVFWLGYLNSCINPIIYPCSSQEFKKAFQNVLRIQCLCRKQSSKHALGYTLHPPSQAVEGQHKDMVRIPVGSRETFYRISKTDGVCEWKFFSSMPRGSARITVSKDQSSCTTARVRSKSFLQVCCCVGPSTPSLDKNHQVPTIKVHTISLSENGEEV
Source text: Calcium flux experimental design: alpha-1 adrenergic receptors (α1-ARs) couple to Gq proteins, which results in downstream activation of phospholipase C and release of calcium from intracellular stores. Intracellular calcium increase upon α1-AR activation can be detected by Calcium 6 dye.
Cell preparation: cells expressing an α1-AR were washed in warmed phosphate-buffered saline to remove medium and harvested using versene (Caisson Labs, catalog #EDL01).
Media was removed from cells by tapping plates upside-down on absorbent wipes, followed by 15 second upside-down 50×g centrifugation, again on absorbent wipes. 12 μL cell dye solution was added to cells using a reagent dispenser (Integra viaFILL) and cells were incubated for 90 minutes at 37° C., 5% CO2.
Compound preparation: candidate alpha-adrenergic compounds, dissolved to 10 mM in DMSO, were diluted in_assay buffer (HBSS/H-EPES containing 2 mM CaCl2 and 2 mM probenecid sodium salt). […] On all assay plates, vehicle (DMSO) and positive control (10 μM epinephrine) conditions were included on the plate, as well as a dose-response curve of epinephrine. […] 384 well compound plates were centrifuged briefly at 250×g, sealed (Axygen PCR-SP) and incubated at 37° C. until the 90 minute cell dye incubation was complete.
Calcium 6 stained cells and 384 well compound plates were loaded onto the Flexstation and incubated on the machine for 5 minutes before initiating the assay.
For each assay well, baseline Calcium 6 fluorescence was detected for 18 seconds prior to 12 μL compound addition at 12 μL per second. Changes in Calcium 6 fluorescence were detected for a further 22 seconds, for a total read time of 40 seconds. All detection was performed with medium gain sensitivity, bottom read, with 6 flashes per read.
Data analysis: for calcium flux, analysis of maximum change from baseline over the 40-second read time was determined using Softmax Pro and data was exported as raw text files. Potency estimates (EC50) were derived from dose response curves (maximum change from baseline versus the log concentration of test compound) fit by four-parameter nonlinear regression using Graphpad Prism. Efficacy was determined by comparing the magnitude of the test compound signal window (fitted curve max−min) with the signal window of the full agonist control, epinephrine. […] All experiments were repeated a minimum of three times, with the average (mean) potency and maximum effect relative to the within-plate full agonist dose-response comparator reported.

[2] = target: T2, α1A-adrenergic receptor (Homo sapiens, UniProt P35348); details: as compared to noradrenaline; InsPs accumulation assay; Blue et al., Table 1; cited from earlier work
T2 sequence (P35348 1-466): T1 sequence (P35348 1-466)

[3] = target: T2, α1A-adrenergic receptor; details: as compared to noradrenaline; FLIPR assay; Blue et al., Table 1; cited from earlier work
[4] = calcium flux, α1A-AR, maximum effect relative to full agonist epinephrine
[5] = calcium flux, α1A-AR, mean of at least three experiments, read-out: Average PEC50

Emax [1, 4] [%]	Compound	EC50 [1, 5] [nM]	Emax [1] [%]	other results
< 20	C[C@@H](O)c1cc(Cl)ccc1CC1=NCCN1 [Compound 146]	> 1000	–	–
–	C[C@H](F)c1cc(Cl)ccc1CC1=NCCN1 [Compound 147]	10 to 977	21 to 60	–
–	Cc1cc(CC2=NCCN2)cc(OC(F)F)c1 [Compound 148]	10 to 977	> 61	–
21 to 60	Cc1c(CC2=NCCN2)ccc(S(=O)(=O)C(F)F)c1Cl [Compound 149]	> 1000	–	–
21 to 60	CCc1c(CC2=NCCN2)ccc(S(=O)(=O)C(F)(F)F)c1Cl [Compound 150]	> 1000	–	–
–	CC(F)(F)c1cc(OC(F)F)ccc1CC1=NCCN1 [Compound 151]	10 to 977	21 to 60	–
–	Clc1ccc(CC2=NCCN2)cc1 [Compound 152]	> 1000	< 20	–
–	Clc1ccccc1CC1=NCCN1 [Compound 153]	10 to 977	< 20	–
–	FC(F)(F)c1ccccc1CC1=NCCN1 [Compound 154]	> 1000	21 to 60	–
–	Cc1ccccc1CC1=NCCN1 [Compound 155]	10 to 977	21 to 60	–
–	COc1ccccc1CC1=NCCN1 [Compound 156]	10 to 977	21 to 60	–
–	CC(F)(F)c1ccc(CC2=NCCN2)c(Cl)c1 [Compound 157]	10 to 977	> 61	–
21 to 60	c1ccc(-c2ncco2)c(CC2=NCCN2)c1 [Compound 158]	10 to 977	–	–
21 to 60	Cc1c(CC2=NCCN2)ccc(S(=O)(=O)C(F)(F)F)c1Cl [Compound 159]	> 1000	–	–
–	FC(F)Oc1cccc(CC2=NCCN2)c1Cl [Compound 160]	10 to 977	> 61	–
–	FC(F)Oc1ccc(Cl)c(CC2=NCCN2)c1 [Compound 161]	10 to 977	> 61	–
21 to 60	CC(F)(F)c1cc(OC(F)(F)F)ccc1CC1=NCCN1 [Compound 162]	> 1000	–	–
> 61	C[C@H](O)c1ccc(CC2=NCCN2)c(Cl)c1 [Compound 163]	10 to 977	–	–
> 61	C[C@@H](O)c1ccc(CC2=NCCN2)c(Cl)c1 [Compound 164]	< 9.77	–	–
–	Cc1ccc(OC(F)(F)F)cc1CC1=NCCN1 [Compound 165]	–	> 61	EC50 [1]: 10 to 977 nM
–	FC(F)(F)Oc1cccc(CC2=NCCN2)c1Cl [Compound 166]	10 to 977	21 to 60	–
–	FC(F)(F)Oc1ccc(Cl)c(CC2=NCCN2)c1 [Compound 167]	10 to 977	> 61	–
–	Cc1c(OCC2=NCCN2)ccc(Cl)c1NS(C)(=O)=O [RO 115-1240 (dabuzalgron) HCl salt, dabuzalgron]	–	–	intrinsic activity [2]: 0.27; intrinsic activity [3]: 0.51
–	Cc1c(OCC2=NCCN2)ccc(Cl)c1NS(C)(=O)=O [RO 115-1240 (dabuzalgron) free base, dabuzalgron]	–	–	intrinsic activity [2]: 0.31
